Drawing on ChEMBL document CHEMBL1201862, “PubChem BioAssay data set” (2004), this text covers AC50, IC50 and EC50 for eight molecules.

Data set [1] can be described thus: HEK293T cytotoxicity, dose response, cytotoxicity control for miR-122 modulator project, cell-based, inhibitor set, cherry-pick, set 2 (AID 720697). It counts as functional.
Data set [2] can be described thus: A549 cell cytotoxicity, dose response, cytotoxicity control, 24 h, CellTiter-Glo luminescence, cherry-picks (AID 1053115). It counts as functional, cell-based. The note with it: A549, 24 h.
A short description of data set [3]: HEK293T cytotoxicity, dose response, cytotoxicity control for miR-122 modulator project, cell-based, activator set, cherry-pick (AID 720690).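 Further: HEK293T human cells scored for general mammalian cytotoxicity.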 It counts as functional.
Data set [4] in a line: miR-122 activators in hepatoma reporter cells, dose response, cell-based, Huh7 psiCHECK-miR122, Renilla luciferase, cherry-picked (AID 651956).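 Further: huh7 hepatoma cells stably carrying a psiCHECK-2 miR-122 sensor plasmid; renilla luciferase signal reporting endogenous miR-122 activity after 48 h compound exposure.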 It counts as functional.
Data set [5] in a line: cytotoxicity in OVCAR8 ovarian cancer cells, dose response, PAX8 project, cell-based, plate reader, dry powder samples (AID 743197). It counts as functional. The note with it: OVCAR-8.
The target of a further data set is Paired box protein Pax-8 (Homo sapiens, UniProt Q06710). Briefly: inhibitors of PAX8-driven TPO luciferase reporter, dose response, RMG-I cells, cherry-pick (AID 687027).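 Further: luciferase reporter driven by Pax8 target thyroperoxidase promoter measured by SteadyGlo luminescence.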 It counts as functional, cell-based.
Paired box protein Pax-8, sequence (Q06710 whole entry): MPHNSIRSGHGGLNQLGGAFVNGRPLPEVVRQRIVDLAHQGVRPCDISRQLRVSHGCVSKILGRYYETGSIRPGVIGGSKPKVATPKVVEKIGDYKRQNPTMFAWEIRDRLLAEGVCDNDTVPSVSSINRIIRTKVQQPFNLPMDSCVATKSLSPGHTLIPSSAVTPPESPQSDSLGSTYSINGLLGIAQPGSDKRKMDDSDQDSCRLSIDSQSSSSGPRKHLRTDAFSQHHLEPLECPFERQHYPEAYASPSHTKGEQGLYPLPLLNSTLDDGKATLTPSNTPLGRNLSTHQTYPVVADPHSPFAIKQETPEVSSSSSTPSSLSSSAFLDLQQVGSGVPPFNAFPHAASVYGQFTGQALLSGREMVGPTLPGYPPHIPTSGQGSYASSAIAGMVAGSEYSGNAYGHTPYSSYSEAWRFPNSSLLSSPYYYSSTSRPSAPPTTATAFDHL
The nature of data set [6]: A549 cell cytotoxicity, dose response, CellTiter-Glo luminescence, dry powder, set 17 (AID 1117284). It counts as functional, cell-based.
Data set [7] is described as follows: CCRF-CEM leukemia cell viability loss, dose response, HRAS target identification, CellTiter-Glo ATP luminescence, 8/24/48 h, dry powder (AID 720607). Format: functional, cell-based.
Data set [8] is described as follows: SNB-75 astrocytoma cell viability loss, late-stage follow-up, mechanism study for HRAS target identification, CellTiter-Glo ATP luminescence, several timepoints, dry powder (AID 720624). Format: functional, cell-based.
Data set [9] can be described thus: U-251 glioblastoma cell viability loss, dose response, HRAS target identification, Alamar Blue fluorescence, 8/24/48 h, dry powder (AID 720605). Format: functional, cell-based.
Data set [10] is described as follows: LOX IMVI melanoma cell viability loss, dose response, HRAS target identification, CellTiter-Glo ATP luminescence, 8/24/48 h, dry powder (AID 720602). It counts as functional, cell-based.
Data set [11] in a line: C2C12 myoblast ATP-based viability loss, dose response, cytotoxicity control for HRAS target identification, cell-based, CellTiter-Glo ATP luminescence, 8/24/48 h, dry powder (AID 720603). It counts as functional.
Data set [12] can be described thus: SR lymphoma cell viability over time, late-stage follow-up, mechanism study for HRAS target identification, CellTiter-Glo ATP luminescence, 8-48 h, dry powder (AID 720608). It counts as functional, cell-based.
Data set [13] is described as follows: HT-29 colorectal cell cytotoxicity over time, dose response, HRas target identification project, CellTiter-Glo, multiple timepoints, dry powder (AID 720598). Format: functional, cell-based.
For data set [14], the target named is Potassium channel subfamily K member 9 (Homo sapiens, UniProt Q9NPC2). Briefly: KCNK9 (TASK3) current inhibition by patch clamp, SAR follow-up, selectivity assay for TASK1 (KCNK3) inhibitor project, cell-based, automated electrophysiology (AID 652210). Format: functional.
Potassium channel subfamily K member 9, sequence (Q9NPC2 whole entry): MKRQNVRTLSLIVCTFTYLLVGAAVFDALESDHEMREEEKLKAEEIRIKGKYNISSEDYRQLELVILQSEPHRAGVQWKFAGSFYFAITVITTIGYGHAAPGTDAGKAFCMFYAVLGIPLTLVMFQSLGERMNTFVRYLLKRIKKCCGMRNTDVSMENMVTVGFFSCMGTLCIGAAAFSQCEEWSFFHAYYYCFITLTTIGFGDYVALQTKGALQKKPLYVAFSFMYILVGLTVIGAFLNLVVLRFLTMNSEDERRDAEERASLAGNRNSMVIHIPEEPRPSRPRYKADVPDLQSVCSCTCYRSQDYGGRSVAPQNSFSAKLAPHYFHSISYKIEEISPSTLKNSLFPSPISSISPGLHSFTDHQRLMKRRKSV
Data set [15] addresses Potassium channel subfamily K member 3 (Homo sapiens, UniProt O14649). In words: TASK1 (KCNK3) potassium channel inhibitors, SAR follow-up, CHO cells, FluxOR thallium flux (AID 652212). It counts as functional.
Data set [16] is described as follows: P. falciparum Dd2 growth inhibitors, dose response, SYBR Green, cherry-picked samples (AID 1159567). Format: functional, cell-based.
Data set [17] can be described thus: Plasmodium falciparum Dd2 Sybr green parasite growth Measured in Cell-Based and Microorganism Combination System Using Plate Reader - 2153-01_Inhibitor_Dose_DryPowder_Activity_Set3. Format: functional.
The nature of data set [18]: P. falciparum Dd2 growth inhibitors, dose response, SYBR Green, dry powder samples, set 9 (AID 1159568). Format: functional, cell-based.
Data set [19] in a line: P. falciparum Dd2 growth inhibitors, dose response, SYBR Green, dry powder samples (AID 1159566).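 Further: potency for growth inhibition with lower SYBR green DNA signal.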 It counts as functional, cell-based.
Data set [20] is described as follows: P. falciparum 3D7-ScDHODH growth inhibitors, dose response, SYBR Green, dry powder samples (AID 1159570).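 Further: parasite growth measured after 72 hours of compound exposure.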 Format: functional, cell-based.
A short description of data set [21]: P. falciparum ATP4 D1247Y mutant growth inhibitors, dose response, NITD609-resistant line, SYBR Green, dry powder (AID 1159571).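 Further: parasites synchronized at ring stage by sorbitol before testing.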 It counts as functional, cell-based.
Data set [22] can be described thus: HepG2 cell cytotoxicity, dose response, cytotoxicity control, plate reader, dry powder samples (AID 1159569).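 Further: inhibitor potency with signal falling toward the positive control level.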 Format: functional, cell-based.
Data set [23] concerns the target Metabotropic glutamate receptor 7 (Homo sapiens, UniProt Q14831). Briefly: mGlu7 positive allosteric modulators, dose response, cell-based, calcium mobilization, Galpha15 (AID 743384). Format: functional.
Data set [24] in a line: HEK293 cell cytotoxicity, dose response, cytotoxicity control, luminescence, dry powder, set 12 (AID 743354). It counts as functional, cell-based.
Another data set deals with Cytochrome P450 3A4 (Homo sapiens, UniProt P08684).
Cytochrome P450 3A4, sequence (P08684 whole entry): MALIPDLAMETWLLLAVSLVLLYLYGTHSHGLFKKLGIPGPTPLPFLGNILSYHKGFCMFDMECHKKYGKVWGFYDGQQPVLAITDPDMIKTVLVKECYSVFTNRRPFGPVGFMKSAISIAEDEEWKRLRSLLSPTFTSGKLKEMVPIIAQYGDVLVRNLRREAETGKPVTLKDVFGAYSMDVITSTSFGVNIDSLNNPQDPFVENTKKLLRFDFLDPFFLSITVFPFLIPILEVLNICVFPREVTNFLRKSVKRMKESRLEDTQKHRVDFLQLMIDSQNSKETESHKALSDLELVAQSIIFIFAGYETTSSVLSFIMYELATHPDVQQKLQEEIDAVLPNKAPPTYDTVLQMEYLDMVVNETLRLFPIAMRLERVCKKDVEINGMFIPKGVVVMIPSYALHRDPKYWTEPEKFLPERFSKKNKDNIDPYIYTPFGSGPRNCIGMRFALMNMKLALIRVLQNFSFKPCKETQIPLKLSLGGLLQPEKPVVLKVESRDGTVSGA
Data set [25] in a line: Dose-response inhibition of insulin secretion in a rat insulinoma line at 5 mM glucose (AID 1117331). Format: functional, cell-based. The settings on record: INS-1E.
The next data set concerns the target T1, Cytochrome P450 1A2 (Homo sapiens, UniProt P05177).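 Further: PubChem cytochrome P450 panel assay, CYP1A2 panel member.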
T1 sequence (P05177 whole entry): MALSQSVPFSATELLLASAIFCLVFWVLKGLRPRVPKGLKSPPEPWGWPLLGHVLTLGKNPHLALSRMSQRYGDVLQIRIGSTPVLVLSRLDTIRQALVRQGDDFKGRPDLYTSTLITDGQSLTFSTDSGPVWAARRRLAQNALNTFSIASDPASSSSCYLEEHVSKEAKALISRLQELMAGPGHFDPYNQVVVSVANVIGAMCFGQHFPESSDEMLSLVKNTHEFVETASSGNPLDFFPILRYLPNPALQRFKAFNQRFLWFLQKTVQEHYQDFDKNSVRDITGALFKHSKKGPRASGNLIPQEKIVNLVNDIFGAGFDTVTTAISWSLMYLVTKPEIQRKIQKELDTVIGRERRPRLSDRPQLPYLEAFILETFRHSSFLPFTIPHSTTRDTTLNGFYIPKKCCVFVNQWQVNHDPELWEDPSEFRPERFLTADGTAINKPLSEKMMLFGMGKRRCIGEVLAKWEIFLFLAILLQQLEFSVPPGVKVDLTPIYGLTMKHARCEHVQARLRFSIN

A short description of data set [26]: HeLa 2N DNA content increase, dose response, cell-based, IC50 (AID 1117349). Format: functional.
The nature of data set [27]: Concentration-dependent survival of SW480 colon cancer line, luminescence detection with CellTiter-Glo, half-maximal inhibitory concentration (AID 1117338). It counts as functional.
Data set [28] in a line: SNU-C1 cell viability reduction, dose response, CellTiter-Glo luminescence (AID 1117323). Format: functional, cell-based.
Data set [29] in a line: CellTiter-Glo luminescent dose response of DLD-1 viability loss (AID 1117352). It counts as functional.
Data set [30] deals with Eukaryotic translation initiation factor 4E (Mus musculus, UniProt P63073). Briefly: eIF4E–eIF4G protein interaction inhibitors, dose response, biochemical, TR-FRET (AID 855).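 Further: potency for disrupting eIF4E binding to eIF4GI seen as loss of FRET.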 It counts as functional.
Eukaryotic translation initiation factor 4E, sequence (P63073 whole entry): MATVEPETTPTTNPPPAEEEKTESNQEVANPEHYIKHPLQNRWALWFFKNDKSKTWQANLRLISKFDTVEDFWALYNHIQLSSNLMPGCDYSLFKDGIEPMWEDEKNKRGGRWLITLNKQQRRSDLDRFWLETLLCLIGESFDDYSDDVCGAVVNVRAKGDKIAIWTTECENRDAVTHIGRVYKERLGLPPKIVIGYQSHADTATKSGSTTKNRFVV
Data set [31] in a line: Glucagon-like peptide 1 release potency, NCI-H716 cell line, dose-response, half-maximal inhibitory concentration (AID 1117344). It counts as functional, cell-based.
The target in data set [32] is Induced myeloid leukemia cell differentiation protein Mcl-1 (Homo sapiens, UniProt Q07820). Briefly: Mcl-1/Noxa binding inhibitor potency, dose response, biochemical, TR-FRET (AID 1417). Format: functional.
Induced myeloid leukemia cell differentiation protein Mcl-1, sequence (Q07820 whole entry): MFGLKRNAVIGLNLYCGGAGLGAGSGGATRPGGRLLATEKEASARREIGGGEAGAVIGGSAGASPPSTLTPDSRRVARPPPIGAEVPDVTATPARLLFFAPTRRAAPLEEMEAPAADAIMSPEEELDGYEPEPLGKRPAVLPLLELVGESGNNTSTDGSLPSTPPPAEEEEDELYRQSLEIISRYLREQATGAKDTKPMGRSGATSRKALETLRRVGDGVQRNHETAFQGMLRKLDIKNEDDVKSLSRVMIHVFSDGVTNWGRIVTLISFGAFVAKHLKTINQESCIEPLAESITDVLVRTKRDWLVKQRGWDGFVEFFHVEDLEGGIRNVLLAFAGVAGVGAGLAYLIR
A short description of data set [33]: RKO cell viability reduction, dose response, CellTiter-Glo luminescence (AID 1117322). Format: functional.
Data set [34] in a line: half-maximal inhibitory concentration for glucagon-like peptide-1 release, STC-1 cell line, dose-response (AID 1117345). It counts as functional, cell-based.
The next data set deals with Cytochrome P450 2C9 (Homo sapiens, UniProt P11712).
Cytochrome P450 2C9, sequence (P11712 whole entry): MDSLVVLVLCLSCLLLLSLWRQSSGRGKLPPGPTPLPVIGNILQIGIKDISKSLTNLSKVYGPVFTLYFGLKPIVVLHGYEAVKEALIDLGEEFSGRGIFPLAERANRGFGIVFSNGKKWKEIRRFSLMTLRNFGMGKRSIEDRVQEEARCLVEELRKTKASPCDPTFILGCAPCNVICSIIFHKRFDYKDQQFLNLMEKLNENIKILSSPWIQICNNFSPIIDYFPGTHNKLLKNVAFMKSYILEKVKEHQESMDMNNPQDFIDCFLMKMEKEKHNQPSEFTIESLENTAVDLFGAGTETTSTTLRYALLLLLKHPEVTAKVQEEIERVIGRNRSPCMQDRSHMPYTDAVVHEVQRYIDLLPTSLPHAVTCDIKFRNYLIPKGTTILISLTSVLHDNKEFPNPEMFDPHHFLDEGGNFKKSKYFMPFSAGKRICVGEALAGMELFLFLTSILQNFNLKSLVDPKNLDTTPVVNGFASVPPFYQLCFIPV
A short description of data set [35]: HeLa 4N DNA content increase, dose response, cell-based, IC50 (AID 1117351). It counts as functional.
The nature of data set [36]: cytotoxicity toward HCT116 cells – cell-based, CellTiter-Glo luminescence, IC50, dose response (AID 1117332). Format: functional. The settings on record: HCT-116.
Data set [37] in a line: cytotoxicity toward Colo320 cells – cell-based, CellTiter-Glo luminescence, IC50, dose response (AID 1117334). It counts as functional. The note with it: COLO 320.
The nature of data set [38]: cytotoxicity toward HT-29 cells – cell-based, CellTiter-Glo luminescence, IC50, dose response (AID 1117330). Format: functional.

Several values for one entry are separate records, joined by “and”; a condition that tells them apart may be missing. Equal entries are not always repeated. Activity calls are given as the source filed them.

Metabotropic glutamate receptor 7, sequence (Q14831 whole entry): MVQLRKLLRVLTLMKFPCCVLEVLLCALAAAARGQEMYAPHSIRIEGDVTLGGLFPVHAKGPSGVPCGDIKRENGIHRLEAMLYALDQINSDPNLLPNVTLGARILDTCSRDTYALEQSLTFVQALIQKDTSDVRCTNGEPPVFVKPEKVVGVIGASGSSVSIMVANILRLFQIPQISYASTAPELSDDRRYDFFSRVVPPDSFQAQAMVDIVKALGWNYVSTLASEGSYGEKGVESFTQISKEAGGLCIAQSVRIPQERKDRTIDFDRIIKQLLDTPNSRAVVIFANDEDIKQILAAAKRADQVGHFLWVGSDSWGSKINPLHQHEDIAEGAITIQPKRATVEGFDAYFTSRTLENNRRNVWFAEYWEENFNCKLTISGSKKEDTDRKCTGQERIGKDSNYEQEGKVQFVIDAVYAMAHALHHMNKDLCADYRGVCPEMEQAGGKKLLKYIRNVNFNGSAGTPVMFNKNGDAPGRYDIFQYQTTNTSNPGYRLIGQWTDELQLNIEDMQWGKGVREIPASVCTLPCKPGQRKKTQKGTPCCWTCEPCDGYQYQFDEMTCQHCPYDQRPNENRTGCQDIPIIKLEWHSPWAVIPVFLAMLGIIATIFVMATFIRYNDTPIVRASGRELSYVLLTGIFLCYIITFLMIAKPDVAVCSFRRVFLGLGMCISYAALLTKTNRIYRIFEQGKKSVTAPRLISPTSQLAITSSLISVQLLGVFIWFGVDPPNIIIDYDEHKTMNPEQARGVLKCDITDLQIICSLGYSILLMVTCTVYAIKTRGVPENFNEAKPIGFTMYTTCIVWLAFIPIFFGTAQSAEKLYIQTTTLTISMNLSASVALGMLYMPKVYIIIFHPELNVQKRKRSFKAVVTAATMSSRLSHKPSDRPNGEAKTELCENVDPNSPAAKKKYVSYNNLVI
Potassium channel subfamily K member 3, sequence (O14649 whole entry): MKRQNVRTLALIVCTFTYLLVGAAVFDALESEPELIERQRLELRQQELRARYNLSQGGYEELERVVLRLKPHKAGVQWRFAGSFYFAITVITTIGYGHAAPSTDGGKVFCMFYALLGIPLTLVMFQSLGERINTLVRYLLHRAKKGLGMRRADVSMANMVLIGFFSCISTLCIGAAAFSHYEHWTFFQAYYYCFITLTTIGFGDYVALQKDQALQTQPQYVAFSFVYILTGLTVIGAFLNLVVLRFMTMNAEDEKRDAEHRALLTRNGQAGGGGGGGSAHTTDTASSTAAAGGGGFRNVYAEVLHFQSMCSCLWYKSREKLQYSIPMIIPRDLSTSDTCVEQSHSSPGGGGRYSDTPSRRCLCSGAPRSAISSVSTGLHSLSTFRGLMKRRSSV

As for `C[C@H](O)C#Cc1ccc2c(c1)O[C@@H](CN(C)Cc1ccc(-c3ccccc3)cc1)[C@@H](C)CN([C@@H](C)CO)S2(=O)=O`, the AC50 was < 195 nM (active) in data set [1]; > 60000 nM (inactive) in data set [2]; 11200 nM (active) in data set [3]; 14700 nM (active) in data set [4]; > 70000 nM (inactive) in data set [5]; 11500 nM (active) at Paired box protein Pax-8. The AC50 in [6] is 22600 nM (active).

Turning to `COC(=O)c1ccc([C@@H]2c3[nH]c4ccccc4c3C[C@@H](C(=O)OC)N2C(=O)CCl)cc1`, the AC50 was 105 nM (active) in [7]; 374 nM (active) in data set [8]; 34.2 nM (active) in data set [9]; 70.9 nM (active) in [10]; 233 nM (active) in data set [11]; 49.2 nM (active) in [12]. In addition, the AC50 in data set [13] was 235 nM (active).

In the case of `COc1ccccc1C(=O)Nc1cc(NC(=O)c2ccccc2C(C)C)ccc1F`, the IC50 in data set [14] was 710 nM (active); in data set [15], 109 nM (active).

Take `COc1ccccc1CN1C[C@@H](C)[C@H](OC)CN(C)C(=O)c2ccc(NC(=O)Nc3ccccc3OC)cc2OC[C@H]1C`: the AC50 in data set [16] is < 300 nM (active); in data set [17], 189 nM (active); in [18], 116 nM (active); in [19], 18.5 nM (active); in [20], 2100 nM (active); in [21] it was 163 nM (active). Also, the AC50 in [22] was > 100000 nM (inactive).

In the case of `CC(=O)Nc1ccc(SCC(=O)c2cc(C)n(CC3CCCO3)c2C)cc1` (stereo not drawn), the EC50 in [23] was 4800 nM (active).

`CC(=O)c1ccc(N2CCN(C(=O)c3ccccc3F)CC2)cc1`: in data set [24], the AC50 is > 52000 nM (inactive).

As for `O=C(CCCN1CCC(O)(c2ccc(Br)cc2)CC1)c1ccc(F)cc1` [BROMPERIDOL], the AC50 result on Cytochrome P450 3A4 was “inconclusive”; at Cytochrome P450 1A2, 5.01 µM (inconclusive). In [25], the IC50 was > 33300 nM (inactive).

`Cc1cc2c(C(C)C)c(O)c(O)c(C=O)c2c(O)c1-c1c(C)cc2c(C(C)C)c(O)c(O)c(C=O)c2c1O` [GOSSYPOL]: the IC50 is > 10000 nM (inactive) in data set [26]; 956 nM (active) in data set [27]; 354 nM (active) in [28]; 834 nM (active) in data set [29]; > 64000 nM (inactive) in data set [30]; 23400 nM (inactive) in data set [31]. The IC50 in [32] is 1520 nM (active); in data set [33] it was 916 nM (active); in [34], > 40000 nM (inactive); in data set [35], > 10000 nM (inactive); in [36] it was 784 nM (active); in data set [37], 1380 nM (active). Besides, the IC50 in data set [38] is 1420 nM (active). Moreover, the AC50 on Cytochrome P450 2C9 was 31.6 µM (inconclusive) and 15.8 µM (inconclusive); on Cytochrome P450 1A2, 15.8 µM (inconclusive) and 39.8 µM (inconclusive).
